Source: ChEMBL document CHEMBL5365453, “Synthesis and biological evaluation of xanthine derivatives with phenacyl group as tryptophan hydroxylase 1 (TPH1) inhibitors for obesity and fatty liver disease” (Bioorg Med Chem Lett, 2023)
Activity calls are given as the source filed them. The rule behind the calls is not given here.

Tests used:
[1] = target: T1, Tryptophan 5-hydroxylase 1 (Homo sapiens, UniProt P17752); assay: Inhibition of TPH1 ( unknown origin )
T1 sequence (P17752 whole entry): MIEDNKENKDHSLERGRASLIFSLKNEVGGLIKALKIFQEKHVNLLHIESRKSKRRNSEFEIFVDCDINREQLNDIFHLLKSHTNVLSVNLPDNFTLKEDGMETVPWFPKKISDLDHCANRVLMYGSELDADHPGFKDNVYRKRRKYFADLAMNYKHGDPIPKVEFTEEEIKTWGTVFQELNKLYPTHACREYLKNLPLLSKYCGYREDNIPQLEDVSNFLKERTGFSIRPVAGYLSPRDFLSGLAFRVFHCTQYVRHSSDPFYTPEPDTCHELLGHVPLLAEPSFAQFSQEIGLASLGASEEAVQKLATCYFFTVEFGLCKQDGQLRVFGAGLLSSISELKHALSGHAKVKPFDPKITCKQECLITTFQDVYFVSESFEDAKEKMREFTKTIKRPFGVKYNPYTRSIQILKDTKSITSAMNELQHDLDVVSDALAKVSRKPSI

[2] = target: T2, Tryptophan 5-hydroxylase 1 (Homo sapiens) (UniProt P17752); assay: Inhibition of TPH1 ( unknown origin ) at 1 uM relative to control
T2 sequence (whole entry): T1 sequence (P17752 whole entry)

[3] = target: T3, Tryptophan 5-hydroxylase 1 (Mus musculus) (UniProt P17532); assay: Inhibition of TPH1 in mouse 3T3-L1 cells assessed as suppression of insulin-induced adipocyte differentiation by measuring reduction in lipid droplet accumulation at 1 to 2 uM measured on day 7 post-adipogenesis induction by oil red O staining based phase-contrast light microscopy; format: cell-based; conditions: dose 1-2 µM, time 7.0 day
T3 sequence (whole entry): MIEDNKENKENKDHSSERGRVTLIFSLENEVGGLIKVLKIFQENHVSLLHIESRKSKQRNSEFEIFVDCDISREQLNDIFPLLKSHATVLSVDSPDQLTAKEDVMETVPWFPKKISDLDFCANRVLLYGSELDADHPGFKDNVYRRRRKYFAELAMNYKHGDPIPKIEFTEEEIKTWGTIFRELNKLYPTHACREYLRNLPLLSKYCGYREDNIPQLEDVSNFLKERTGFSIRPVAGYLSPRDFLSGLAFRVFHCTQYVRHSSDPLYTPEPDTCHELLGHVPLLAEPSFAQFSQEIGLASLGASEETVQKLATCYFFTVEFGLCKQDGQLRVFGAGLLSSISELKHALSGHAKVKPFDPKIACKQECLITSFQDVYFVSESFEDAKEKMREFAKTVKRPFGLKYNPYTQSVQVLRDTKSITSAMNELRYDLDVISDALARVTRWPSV

[4] = target: T3, Tryptophan 5-hydroxylase 1 (Mus musculus); assay: Inhibition of TPH1 in mouse 3T3-L1 cells assessed as suppression of insulin-induced adipocyte differentiation by measuring reduction in lipid droplet accumulation at 1 to 2 uM measured on day 7 post-adipogenesis induction by oil red O staining based spectrophotometry; format: cell-based; conditions: dose 1-2 µM, time 7.0 day
[5] = Stability in mouse liver microsomes assessed as compound remaining measured after 30 mins; format: ADME, Microsome; conditions: read-out: Stability
[6] = Stability in human liver microsomes assessed as compound remaining measured after 30 mins; format: ADME, Microsome; conditions: read-out: Stability

| SMILES | inhibition [2] [%] | other results |
| --- | --- | --- |
| CCn1c(=O)[nH]c(=O)c2[nH]c(Cc3cn4ccsc4n3)nc21 | 10.2 | – |
| CCn1c(=O)[nH]c(=O)c2c1nc(Cc1ccccc1)n2Cc1ccccc1 | 0 | – |
| CCn1c(=O)[nH]c(=O)c2c1nc(Cc1cn3ccsc3n1)n2CC(=O)c1ccc(C(F)(F)F)cc1 | 47.5 | – |
| CCn1c(=O)[nH]c(=O)c2c1nc(Cc1cn3ccsc3n1)n2CC(=O)Nc1ccc(OC)cc1 | 4.1 | – |
| CCn1c(=O)[nH]c(=O)c2c1nc(Cc1cn3ccsc3n1)n2C/C(=N/O)c1ccc(OC)cc1 | 25.5 | – |
| CCn1c(=O)[nH]c(=O)c2c1nc(Cc1cn3ccsc3n1)n2CC(=O)c1ccc(F)cc1 | 62.6 | – |
| CCn1c(=O)[nH]c(=O)c2c1nc(Cc1cn3ccsc3n1)n2CC(=O)c1ccc(OC(C)=O)cc1 | 80.8 | – |
| CCn1c(=O)n(Cc2ccccc2)c(=O)c2c1nc(Cc1cn3ccsc3n1)n2Cc1ccccc1 | 6.2 | – |
| CCn1c(=O)[nH]c(=O)c2c1nc(Cc1cn3ccsc3n1)n2CC(=O)c1ccc(N=[N+]=[N-])cc1 | 87.9 | – |
| CCn1c(=O)[nH]c(=O)c2c1nc(Cc1cn3ccsc3n1)n2Cc1ccccc1 | 48.6 | IC50 [1]: 1160 nM |

Now from value to compound, other results behind:

| inhibition [2] [%] | SMILES | other results |
| --- | --- | --- |
| 94.3 | CCn1c(=O)[nH]c(=O)c2c1nc(Cc1cn3ccsc3n1)n2CC(=O)c1ccc(O)cc1 | IC50 [1]: 110 nM; inhibition [3]: Active; inhibition [4]: Active; remaining at 0.5 h [5]: 77.3%; remaining at 0.5 h [6]: 80.4% |
| 0 | CCn1c(=O)[nH]c(=O)c2c1nc(C)n2Cc1ccccc1 | – |
| 0 | CCn1c(=O)[nH]c(=O)c2c1nc(Cc1cn3ccsc3n1)n2CC(O)c1ccc(Cl)cc1 (centres undefined) | – |
| 32.6 | CCn1c(=O)[nH]c(=O)c2c1nc(Cc1cn3ccsc3n1)n2CC(=O)c1ccc(-c2ccccc2)cc1 | – |
| 39.4 | CCn1c(=O)[nH]c(=O)c2c1nc(Cc1cn3ccsc3n1)n2CC(=O)c1ccccc1 | – |
| 47.2 | CCn1c(=O)[nH]c(=O)c2c1nc(Cc1cn3ccsc3n1)n2CC(=O)c1ccc(Br)cc1 | – |
| 0 | CCn1c(=O)[nH]c(=O)c2c1nc(Cn1ccnc1)n2Cc1ccccc1 | – |
| 87.8 | CCn1c(=O)[nH]c(=O)c2c1nc(Cc1cn3ccsc3n1)n2CC(=O)c1ccc(N)cc1 | IC50 [1]: 168 nM; remaining at 0.5 h [5]: 80.8%; remaining at 0.5 h [6]: 95.3% |
| 66 | CCn1c(=O)[nH]c(=O)c2c1nc(Cc1cn3ccsc3n1)n2CC(=O)c1ccc(Cl)cc1 | – |
| 0.3 | CCn1c(=O)[nH]c(=O)c2c1nc(Cc1cn3ccsc3n1)n2CC(=O)c1ccccc1OC | – |
| 83 | CCn1c(=O)[nH]c(=O)c2c1nc(Cc1cn3ccsc3n1)n2CC(=O)c1ccc(CO)cc1 | IC50 [1]: 277 nM; remaining at 0.5 h [5]: 85.2%; remaining at 0.5 h [6]: 91.5% |
| 0 | CCn1c(=O)[nH]c(=O)c2c1nc(Cn1cnc3ccccc31)n2Cc1ccccc1 | – |
| 38.9 | CCn1c(=O)[nH]c(=O)c2c1nc(Cc1cn3ccsc3n1)n2CC(=O)c1cccc(OC)c1 | – |
| 91.4 | CCn1c(=O)[nH]c(=O)c2c1nc(Cc1cn3ccsc3n1)n2CC(=O)c1ccc(OC)cc1 | IC50 [1]: 182 nM; remaining at 0.5 h [5]: 30%; remaining at 0.5 h [6]: 69% |
